Tests used:
Experiment in all cases: relative viability (nuclei count vs DMSO), 5 days (fraction); higher = more cells survive
[1] = compound: CN(C)C[C@@H]1CCn2cc(c3ccccc32)C2=C(C(=O)NC2=O)c2cn(c3ccccc23)CCO1 [Ruboxistaurin] + COc1cccc2cc(-c3nc([C@H]4CC[C@H](C(=O)O)CC4)n4ncnc(N)c34)[nH]c12 [OSI-027] (partner 0.5 µM)
Method in brief: (§1)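 Lung cancer cell lines in 1536-well plates got either a single drug or a fixed anchor-drug dose together with five library-drug doses (not always all listed) in √10 steps, by pin tool, on the day after seeding. Nuclei were counted after 5 days, and relative viability is the treated-to-vehicle ratio of nuclei counts. Values are medians of duplicate plates.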

[2] = compound: CN(C)C[C@@H]1CCn2cc(c3ccccc32)C2=C(C(=O)NC2=O)c2cn(c3ccccc23)CCO1 [Ruboxistaurin] + Cc1nc(NC(=O)N2CCC[C@H]2C(N)=O)sc1-c1ccnc(C(C)(C)C(F)(F)F)c1 [Alpelisib] (partner 2 µM)
Method in brief: as §1

[3] = compound: CN(C)C[C@@H]1CCn2cc(c3ccccc32)C2=C(C(=O)NC2=O)c2cn(c3ccccc23)CCO1 [Ruboxistaurin] + CCNC(=O)c1noc(-c2cc(C(C)C)c(O)cc2O)c1-c1ccc(CN2CCOCC2)cc1 [Luminespib] (partner 0.01 µM)
Method in brief: as §1

[4] = compound: CN(C)C[C@@H]1CCn2cc(c3ccccc32)C2=C(C(=O)NC2=O)c2cn(c3ccccc23)CCO1 [Ruboxistaurin] + COc1cc2c(Oc3ccc(NC(=O)C4(C(=O)Nc5ccc(F)cc5)CC4)cc3F)ccnc2cc1OCCCN1CCOCC1 [Foretinib] (partner 0.25 µM)
Method in brief: as §1

[5] = compound: CN(C)C[C@@H]1CCn2cc(c3ccccc32)C2=C(C(=O)NC2=O)c2cn(c3ccccc23)CCO1 [Ruboxistaurin] + Nc1ncn([C@H]2C[C@H](O)[C@@H](CO)O2)c(=O)n1 [Decitabine] (partner 2 µM)
Method in brief: as §1

Row | Cell Line | relative viability ([1]; first compound 0.08 µM) | relative viability ([1]; first compound 0.8 µM) | relative viability ([1]; first compound 2.53 µM) | relative viability ([1]; first compound 8 µM) | relative viability ([2]; first compound 0.08 µM) | relative viability ([2]; first compound 0.8 µM) | relative viability ([2]; first compound 2.53 µM) | relative viability ([2]; first compound 8 µM) | relative viability ([3]; first compound 0.08 µM) | relative viability ([3]; first compound 0.8 µM) | relative viability ([3]; first compound 2.53 µM) | relative viability ([3]; first compound 8 µM) | relative viability ([4]; first compound 0.08 µM) | relative viability ([4]; first compound 0.8 µM) | relative viability ([4]; first compound 2.53 µM) | relative viability ([4]; first compound 8 µM) | relative viability ([5]; first compound 0.08 µM) | relative viability ([5]; first compound 0.8 µM) | relative viability ([5]; first compound 2.53 µM) | relative viability ([5]; first compound 8 µM)
1 | RERF-LC-KJ | 0.627 | 0.497 | 0.461 | 0.415 | 0.854 | 0.798 | 0.761 | 0.744 | 1.23 | 1.08 | 1.36 | 0.965 | 0.879 | 0.777 | 0.864 | 0.869 | 0.784 | 0.587 | 0.743 | 0.682
2 | NCI-H322M | 0.646 | 0.514 | 0.514 | 0.377 | 0.811 | 0.74 | 0.818 | 0.67 | 0.836 | 0.718 | 0.766 | 0.399 | 0.947 | 0.922 | 0.981 | 0.627 | 0.746 | 0.656 | 0.6 | 0.619
3 | NCI-H1651 | 0.779 | 0.611 | 0.653 | 0.566 | 1.04 | 0.755 | 0.974 | 0.797 | 1.06 | 0.835 | 0.899 | 0.901 | 1.04 | 0.772 | 0.794 | 0.841 | 0.698 | 0.542 | 0.681 | 0.632
4 | HARA | 0.677 | 0.356 | 0.488 | 0.305 | 1.05 | 0.797 | 0.914 | 0.481 | 0.612 | 0.495 | 0.837 | 0.601 | 0.842 | 0.865 | 0.993 | 0.813 | 0.502 | 0.496 | 0.567 | 0.592
5 | H3255 | 0.686 | 0.501 | 0.633 | 0.577 | 0.738 | 0.698 | 0.654 | 0.521 | 1.02 | 0.726 | 0.957 | 0.865 | 0.849 | 0.867 | 0.879 | 0.876 | 0.608 | 0.54 | 0.603 | 0.538
6 | NCI-H441 | 0.65 | 0.474 | 0.607 | 0.456 | 0.653 | 0.717 | 0.845 | 0.498 | 0.407 | 0.276 | 0.355 | 0.338 | 0.87 | 0.884 | 1.18 | 0.938 | 0.278 | 0.309 | 0.277 | 0.269
7 | ABC-1 | 0.692 | 0.386 | 0.481 | 0.331 | 1.35 | 1.13 | 1.07 | 0.839 | 0.773 | 0.823 | 0.564 | 0.669 | 1.21 | 1.13 | 1.26 | 1.11 | 1.19 | 0.696 | 1.26 | 0.942
